Data as given in US20110086759A1, “CHEMICAL COMPOUNDS” (SYNGENTA CROP PROTECTION, INC., priority 2007, published 2011).

Key:
Format in all cases: in vivo
[1] = system: Amaranthus retoflexus (AMARE); assay: Post-emergence biological efficacy, glasshouse pot test; conditions: Amaranthus retroflexus, 312 h
Method in brief: (§1)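 Scored 13 days after spraying on a 0 (no damage) to 100 (total damage) scale. Treatment was a post-emergence spray at 1000 or 250 g/ha, from acetone/water 50:50 plus 0.5% Tween 20, onto 8-day-old plants in soil pots. Growth at 24/16° C, 14 h photoperiod, 65% humidity, watered twice daily.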

[2] = system: Echinochloa crus-galli (ECHCG); assay: as above; conditions: 312 h
Method in brief: as §1

[3] = system: Setaria faberi (SETFA); assay: as above; conditions: 312 h
Method in brief: as §1

[4] = system: Solanum nigrum (SOLNI); assay: as above; conditions: 312 h
Method in brief: as §1

[5] = system: Alopecurus myosuroides (ALOMY); assay: as above; conditions: 312 h
Method in brief: as §1

[6] = system: Ipomea hederaceae (IPOHE); assay: as above; conditions: Ipomoea hederacea, 312 h
Method in brief: as §1

[7] = system: Amaranthus retoflexus (AMARE); assay: Pre-emergence biological efficacy, glasshouse pot test; conditions: Amaranthus retroflexus, 312 h
Method in brief: (§2)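 Damage was rated on a 0–100 scale 13 days after treatment, with plants kept at 24/16° C, 14 h light and 65% humidity. The pre-emergence spray, at 1000 or 250 g/ha in acetone/water 50:50 with 0.5% Tween 20, was applied one day after sowing.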

[8] = system: Echinochloa crus-galli (ECHCG); assay: as above; conditions: 312 h
Method in brief: as §2

[9] = system: Setaria faberi (SETFA); assay: as above; conditions: 312 h
Method in brief: as §2

[10] = system: Solanum nigrum (SOLNI); assay: as above; conditions: 312 h
Method in brief: as §2

[11] = system: Alopecurus myosuroides (ALOMY); assay: as above; conditions: 312 h
Method in brief: as §2

[12] = system: Ipomea hederaceae (IPOHE); assay: as above; conditions: Ipomoea hederacea, 312 h
Method in brief: as §2

[13] = Rate 1,000 g/ha, post-emergence spray, evaluated after 13 days (100=total damage to plant; 0=no damage to plant), read-out: Percentage damage caused to weed species, post-emergence, AMARE
[14] = Rate 1,000 g/ha, post-emergence spray, evaluated after 13 days (100=total damage to plant; 0=no damage to plant), read-out: Percentage damage caused to weed species, post-emergence, ECHCG
[15] = Rate 1,000 g/ha, post-emergence spray, evaluated after 13 days (100=total damage to plant; 0=no damage to plant), read-out: Percentage damage caused to weed species, post-emergence, SETFA
[16] = Rate 1,000 g/ha, post-emergence spray, evaluated after 13 days (100=total damage to plant; 0=no damage to plant), read-out: Percentage damage caused to weed species, post-emergence, SOLNI
[17] = Rate 1,000 g/ha, post-emergence spray, evaluated after 13 days (100=total damage to plant; 0=no damage to plant), read-out: Percentage damage caused to weed species, post-emergence, ALOMY
[18] = Rate 1,000 g/ha, post-emergence spray, evaluated after 13 days (100=total damage to plant; 0=no damage to plant), read-out: Percentage damage caused to weed species, post-emergence, IPOHE
[19] = pre-emergence, rate 1,000 g/ha, evaluated after 13 days (100=total damage to plant; 0=no damage), read-out: Percentage damage caused to weed species, AMARE
[20] = pre-emergence, rate 1,000 g/ha, evaluated after 13 days (100=total damage to plant; 0=no damage), read-out: Percentage damage caused to weed species, ECHCG
[21] = pre-emergence, rate 1,000 g/ha, evaluated after 13 days (100=total damage to plant; 0=no damage), read-out: Percentage damage caused to weed species, SETFA
[22] = pre-emergence, rate 1,000 g/ha, evaluated after 13 days (100=total damage to plant; 0=no damage), read-out: Percentage damage caused to weed species, SOLNI
[23] = pre-emergence, rate 1,000 g/ha, evaluated after 13 days (100=total damage to plant; 0=no damage), read-out: Percentage damage caused to weed species, ALOMY
[24] = pre-emergence, rate 1,000 g/ha, evaluated after 13 days (100=total damage to plant; 0=no damage), read-out: Percentage damage caused to weed species, IPOHE

Row | SMILES | pest or weed control at 1000 g/ha [1, 13] [%] | pest or weed control at 1000 g/ha [2, 14] [%] | pest or weed control at 1000 g/ha [3, 15] [%] | pest or weed control at 1000 g/ha [4, 16] [%] | pest or weed control at 1000 g/ha [5, 17] [%] | pest or weed control at 1000 g/ha [6, 18] [%] | pest or weed control at 1000 g/ha [7, 19] [%] | pest or weed control at 1000 g/ha [8, 20] [%] | pest or weed control at 1000 g/ha [9, 21] [%] | pest or weed control at 1000 g/ha [10, 22] [%] | pest or weed control at 1000 g/ha [11, 23] [%] | pest or weed control at 1000 g/ha [12, 24] [%] | other results
1 | COC(=O)c1nc(C2CC2)nc(N(C)Cc2cccc(OC)c2)c1Cl [Compound 5-79, 5-Chloro-2-cyclopropyl-6-methoxycarbonyl-4-[N-(3-methoxy-phenylmethyl)-N-methyl-amino]-pyrimidine] | 100 | 0 | 30 | 80 | 0 | 70 | 70 | 0 | 0 | 40 | 0 | 50 | –
2 | C=CCN(Cc1cccs1)c1nc(C2CC2)nc(C(=O)OC)c1Cl [Compound 151-140, 5-Chloro-2-cyclopropyl-6-methoxycarbonyl-4-(N-prop-2-en-1-yl-N-thiophen-2-ylmethyl-amino)-pyrimidine] | 60 | 10 | 50 | 50 | 10 | 70 | 100 | 0 | 10 | 70 | 0 | 20 | –
3 | CCN(Cc1ccccc1F)c1nc(C2CC2)nc(C(=O)OC)c1Cl [Compound 6-64, 5-Chloro-2-cyclopropyl-4-[N-ethyl-N-(2-fluoro-phenyl)methyl-amino]-6-methoxycarbonyl-pyrimidine] | 100 | 70 | 90 | 100 | 30 | 100 | 60 | 20 | 30 | 20 | 10 | 50 | –
4 | COC(=O)c1nc(C2CC2)nc(NCC(c2ccccc2)c2ccccc2)c1Cl [Compound 4-267, 5-Chloro-2-cyclopropyl-4-[2,2-(diphenyl)-ethylamino]-6-methoxycarbonyl-pyrimidine] | – | – | – | – | – | – | – | – | – | – | – | – | pest or weed control at 1000 g/ha ([1]; post-emergence, 1,000 g/ha, evaluated after 13 days (100=total damage; 0=no damage), read-out: Percentage damage caused to weed species, AMARE): 90%; pest or weed control at 1000 g/ha ([2]; post-emergence, 1,000 g/ha, evaluated after 13 days (100=total damage; 0=no damage), read-out: Percentage damage caused to weed species, ECHCG): 10%; pest or weed control at 1000 g/ha ([3]; post-emergence, 1,000 g/ha, evaluated after 13 days (100=total damage; 0=no damage), read-out: Percentage damage caused to weed species, SETFA): 20%; pest or weed control at 1000 g/ha ([4]; post-emergence, 1,000 g/ha, evaluated after 13 days (100=total damage; 0=no damage), read-out: Percentage damage caused to weed species, SOLNI): 80%; pest or weed control at 1000 g/ha ([5]; post-emergence, 1,000 g/ha, evaluated after 13 days (100=total damage; 0=no damage), read-out: Percentage damage caused to weed species, ALOMY): 10%; pest or weed control at 1000 g/ha ([6]; post-emergence, 1,000 g/ha, evaluated after 13 days (100=total damage; 0=no damage), read-out: Percentage damage caused to weed species, IPOHE): 70%; pest or weed control at 1000 g/ha ([7]; pre-emergence, 1,000 g/ha, evaluated after 13 days (100=total damage; 0=no damage), read-out: Percentage damage AMARE): 90%; pest or weed control at 1000 g/ha ([8]; pre-emergence, 1,000 g/ha, evaluated after 13 days (100=total damage; 0=no damage), read-out: Percentage damage ECHCG): 10%; pest or weed control at 1000 g/ha ([9]; pre-emergence, 1,000 g/ha, evaluated after 13 days (100=total damage; 0=no damage), read-out: Percentage damage SETFA): 10%; pest or weed control at 1000 g/ha ([10]; pre-emergence, 1,000 g/ha, evaluated after 13 days (100=total damage; 0=no damage), read-out: Percentage damage SOLNI): 60%; pest or weed control at 1000 g/ha ([11]; pre-emergence, 1,000 g/ha, evaluated after 13 days (100=total damage; 0=no damage), read-out: Percentage damage ALOMY): 10%; pest or weed control at 1000 g/ha ([12]; pre-emergence, 1,000 g/ha, evaluated after 13 days (100=total damage; 0=no damage), read-out: Percentage damage IPOHE): 60%
